Test results reported in US20240343729A1 (priority 2021, published 2024).

How the values were obtained:
Human PDE10A2 [1] = biological target: T1, Human PDE10A2 (Homo sapiens (Human), UniProt Q9Y233); test: cell-based; settings: Forskolin 10 μM; read-out: cAMP HTRF Assay in HEK 293 rhPDE10A2 cell line (pIC50) (converted)
Description: Semi log compound dilutions starting at a final concentration of 10 μM were dispensed into a white 384 well plate, alongside DMSO and an Inhibited control using the Tecan D300e digital dispenser. HEK 293 cells overexpressing recombinant human PDE10A2 were seeded on top of the compounds at 2500 cells/well in a volume 5 μL/well. The plate was incubated at room temperature for 60 minutes. To induce endogenous cAMP, 5 μL/well of Forskolin at a final assay concentration of 10 μM was added to the plate. The plate was incubated at room temperature for a further 45 minutes. cAMP HTRF detection reagents were added, and the plate was incubated for 60 minutes at room temperature. […] Data was analysed using a 4-parameter fit.

Human PDE10A2 [2] = biological target: T1, Human PDE10A2; test: biochemical; format: biochemical; settings: human PDE10A2 0.25 nM, cGMP 3 μM
Description: Semi Log compound dilutions starting at a final concentration of 50 μM were dispensed into a black 384 well plate alongside, DMSO and an Inhibited control using the Echo Acoustic dispenser. […] Data was analysed using a 4-parameter fit.

[3] = test system: isolated human neutrophil; test: In vitro assay of IL-8 neutrophil activation; format: cell-based
[4] = test system: inflamed colonic mucosa from ulcerative colitis patients; test: Ex-vivo culture of colon biopsies from ulcerative colitis patients, cytokine release (Protocol 1); format: cell-based, human; settings: UC colon biopsies, two patients; PF-02545920 0.1 μM and 1 μM, TAK-063 1 uM; 24 h; compared to DMSO vehicle
Description: The effect of selective PDE10A inhibition was tested on inflamed colonic mucosa from ulcerative colitis patients taken during routine endoscopy (Protocol 1 detailed below). These samples retain a disease phenotype in ex-vivo culture, secrete high basal levels of inflammatory cytokines, and represent a highly relevant and translational disease model. The effect of the PDE10A inhibitors on levels of the inflammatory cytokines IL-6 and IL-8 released from these tissue samples were measured. Both IL-6 and IL-8 are key regulators in ulcerative colitis pathology and their levels correlate with disease severity (Waldner M J et al. Master regulator of intestinal disease: IL-6 in chronic inflammation and cancer development. Semin Immunol. 26(1), 75-9 (2014); Bernardo D et al. IL-6 promotes immune responses in human ulcerative colitis and induces a skin-homing phenotype in the dendritic cells and T-cells they stimulate. Eur J Immunol. 42(5), 1337-53 (2012); Pearl D S, Cytokine mucosal expression in ulcerative colitis, the relationship between cytokine release and disease activity. J Crohns Colitis. 7(6), 481-9 (2013)).
These colon biopsies retain an inflammatory phenotype and secrete high levels of inflammatory cytokines in ex-vivo culture.
Biopsy tissue was obtained from inflamed colonic mucosa from ulcerative colitis or Crohn's disease patients during routine endoscopy. […] Biopsies were incubated in organ culture for 24 h with the addition of positive control compounds, or specific PDE10A inhibitors. Supernatants collected at the end of the experiment were snap-frozen and stored at −70° C. For the measurement of cytokines, the frozen culture supernatants were thawed and analysed for levels of the inflammatory cytokines using Luminex cytokine assay kits (R&D Systems) and an R&D Systems MAGPIX® analyser. Mean values±SDs were calculated for the levels of spontaneous cytokine production measured in biopsy culture supernatants from each treatment group.

[5] = test system: inflamed colonic mucosa from Crohn's Disease patients; test: Ex-vivo culture of colon biopsies from Crohn's disease patients, cytokine release (Protocol 1); format: cell-based, human; settings: 0.1 uM; 2 independent CD patient biopsies; compared to DMSO vehicle
Description: In addition, we tested the effect of selective PDE10A inhibition using 0.1 uM PF-2545920 on inflamed colonic mucosa from Crohn's Disease patients taken during routine endoscopy (Protocol 1).
Biopsy tissue was obtained from inflamed colonic mucosa from ulcerative colitis or Crohn's disease patients during routine endoscopy. Ex-vivo biopsy cultures for the analysis of inflammatory cytokine biomarkers were run as previously described (Vossenksmper A. et al. A CD3-specific antibody reduces cytokine production and alters phosphoprotein profiles in intestinal tissues from patients with inflammatory bowel disease. Gastroenterology, 147, 172-183 (2014)). Biopsies were incubated in organ culture for 24 h with the addition of positive control compounds, or specific PDE10A inhibitors. Supernatants collected at the end of the experiment were snap-frozen and stored at −70° C. For the measurement of cytokines, the frozen culture supernatants were thawed and analysed for levels of the inflammatory cytokines using Luminex cytokine assay kits (R&D Systems) and an R&D Systems MAGPIX® analyser. Mean values±SDs were calculated for the levels of spontaneous cytokine production measured in biopsy culture supernatants from each treatment group.

other PDE family members = settings: literature value; read-out: IC50s for other PDE family members; cited from earlier work
[6] = test system: inflamed colonic mucosa from pharmacotherapy treatment-refractory ulcerative colitis patients; test: Ex-vivo culture of resected colon tissue from treatment-refractory ulcerative colitis patients, TNFα release (Protocol 2); format: cell-based, human; settings: 1 μM; two UC patients; SEB present; about 18 hours; compared to DMSO vehicle

T1 sequence (Q9Y233 267-1055): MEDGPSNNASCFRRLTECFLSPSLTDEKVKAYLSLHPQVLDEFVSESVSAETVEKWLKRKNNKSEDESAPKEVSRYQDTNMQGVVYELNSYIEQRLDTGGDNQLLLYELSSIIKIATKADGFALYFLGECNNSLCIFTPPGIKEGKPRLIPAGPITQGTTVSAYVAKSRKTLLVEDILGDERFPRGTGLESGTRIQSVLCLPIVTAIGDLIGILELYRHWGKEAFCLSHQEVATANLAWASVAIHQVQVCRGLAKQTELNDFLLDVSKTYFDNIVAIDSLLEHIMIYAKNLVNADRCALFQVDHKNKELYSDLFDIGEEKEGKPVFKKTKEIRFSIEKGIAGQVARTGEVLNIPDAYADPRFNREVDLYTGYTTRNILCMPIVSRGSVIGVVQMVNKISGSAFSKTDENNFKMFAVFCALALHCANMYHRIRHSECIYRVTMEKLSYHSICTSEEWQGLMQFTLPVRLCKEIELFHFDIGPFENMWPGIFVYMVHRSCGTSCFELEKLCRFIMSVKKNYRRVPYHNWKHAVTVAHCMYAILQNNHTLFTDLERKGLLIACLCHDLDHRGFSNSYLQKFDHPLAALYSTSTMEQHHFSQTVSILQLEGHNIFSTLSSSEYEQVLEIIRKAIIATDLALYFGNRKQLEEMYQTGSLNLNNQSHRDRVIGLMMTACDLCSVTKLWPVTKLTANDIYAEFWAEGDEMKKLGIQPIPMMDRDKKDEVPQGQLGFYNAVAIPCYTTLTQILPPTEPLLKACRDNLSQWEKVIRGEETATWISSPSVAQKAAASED

Cn1cc(-c2ccccc2)nc1C#Cc1nc(N2C[C@H]3COC[C@H]3C2)c2cnn(C)c2n1 [Example 23, (3aR,6aS)-5-(1-Methyl-6-((1-methyl-4-phenyl-1H-imidazol-2-yl)ethynyl)-1H-pyrazolo[3,4-d]pyrimidin-4-yl)hexahydro-1H-furo[3,4-c]pyrrole]
IC50 (Human PDE10A2 [1]): 0.245 nM
PDE10A2 Phosphate Sensor Enzyme Assay (pIC50) (Human PDE10A2 [2]): 10.40

Cn1cc(-c2ccccc2)nc1C#Cc1nc(N2CCS(=N)(=O)CC2)c2cnn(C)c2n1 [Example 24, 1-Imino-4-(1-methyl-6-((1-methyl-4-phenyl-1H-imidazol-2-yl)ethynyl)-1H-pyrazolo[3,4-d]pyrimidin-4-yl)-1l6-thiomorpholine 1-oxide]
IC50 (Human PDE10A2 [1]): 1.2 nM
PDE10A2 Phosphate Sensor Enzyme Assay (pIC50) (Human PDE10A2 [2]): 10.10

C(#Cc1nc(-c2ccccc2)c[nH]1)c1nc(N2C[C@H]3COC[C@H]3C2)c2cnn(C3COC3)c2n1 [Example 27, (3aR,6aS)-5-(1-(Oxetan-3-yl)-6-((4-phenyl-1H-imidazol-2-yl)ethynyl)-1H-pyrazolo[3,4-d]pyrimidin-4-yl)hexahydro-1H-furo[3,4-c]pyrrole]
IC50 (Human PDE10A2 [1]): 32.4 nM
PDE10A2 Phosphate Sensor Enzyme Assay (pIC50) (Human PDE10A2 [2]): 9.49

Cn1cnc2c(N3C[C@H]4COC[C@H]4C3)nc(C#Cc3nc(-c4ccccc4)c[nH]3)nc21 [Example 28, (3aR,6aS)-5-(9-Methyl-2-((4-phenyl-1H-imidazol-2-yl)ethynyl)-9H-purin-6-yl)hexahydro-1H-furo[3,4-c]pyrrole]
IC50 (Human PDE10A2 [1]): 33.9 nM
PDE10A2 Phosphate Sensor Enzyme Assay (pIC50) (Human PDE10A2 [2]): 9.34

C[C@@H]1COCCN1c1nc(C#Cc2nc(-c3ccccc3)c[nH]2)nc2c1ncn2C [Example 29, (R)-3-Methyl-4-(9-methyl-2-((4-phenyl-1H-imidazol-2-yl)ethynyl)-9H-purin-6-yl)morpholine]
IC50 (Human PDE10A2 [1]): 3.47 nM
PDE10A2 Phosphate Sensor Enzyme Assay (pIC50) (Human PDE10A2 [2]): 9.92

C[C@H]1COCCN1c1nc(C#Cc2nc(-c3ccccc3)c[nH]2)nc2c1ncn2C [Example 30, (S)-3-Methyl-4-(9-methyl-2-((4-phenyl-1H-imidazol-2-yl)ethynyl)-9H-purin-6-yl)morpholine]
IC50 (Human PDE10A2 [1]): > 1000 nM
PDE10A2 Phosphate Sensor Enzyme Assay (pIC50) (Human PDE10A2 [2]): 8.97

Cn1cnc2c(N3C[C@H]4COC[C@H]4C3)nc(C#Cc3nc(-c4cccnc4)c[nH]3)nc21 [Example 31, (3aR,6aS)-5-(9-Methyl-2-((4-(pyridin-3-yl)-1H-imidazol-2-yl)ethynyl)-9H-purin-6-yl)hexahydro-1H-furo[3,4-c]pyrrole]
IC50 (Human PDE10A2 [1]): 3.98 nM
PDE10A2 Phosphate Sensor Enzyme Assay (pIC50) (Human PDE10A2 [2]): 8.95

C[C@@H]1COCCN1c1nc(C#Cc2nc(-c3cccnc3)c[nH]2)nc2c1ncn2C [Example 32, (R)-3-Methyl-4-(9-methyl-2-((4-(pyridin-3-yl)-1H-imidazol-2-yl)ethynyl)-9H-purin-6-yl)morpholine]
IC50 (Human PDE10A2 [1]): 2.34 nM
PDE10A2 Phosphate Sensor Enzyme Assay (pIC50) (Human PDE10A2 [2]): 9.90

C[C@H]1COCCN1c1nc(C#Cc2nc(-c3cccnc3)c[nH]2)nc2c1ncn2C [Example 33, (S)-3-Methyl-4-(9-methyl-2-((4-(pyridin-3-yl)-1H-imidazol-2-yl)ethynyl)-9H-purin-6-yl)morpholine]
IC50 (Human PDE10A2 [1]): 17.4 nM
PDE10A2 Phosphate Sensor Enzyme Assay (pIC50) (Human PDE10A2 [2]): 8.68

Cn1cc(-c2ccncc2)c(-c2ccc(OCc3ccc4ccccc4n3)cc2)n1 [PF-02545920]
IL-8 induced neutrophil activation [3]: dose dependently inhibited
secreted levels of IL-6 [4]: significantly reduced
secreted levels of IL-8 [4]: significantly reduced
secreted levels of IL-6 [5]: significantly reduced
secreted levels of IL-8 [5]: significantly reduced
IC50 (other PDE family members): > 1000 nM
secreted levels of TNFα [6]: significantly reduced

COc1cn(-c2ccc(-n3cccn3)cc2F)nc(-c2ccnn2-c2ccccc2)c1=O [TAK-063, 1-[2-fluoro-4-(1H-pyrazol-1-yl)phenyl]-5-methoxy-3-(1-phenyl-1H-pyrazol-5-yl)pyridazin-4(1H)-one]
secreted levels of IL-6 [4]: significantly reduced
secreted levels of IL-8 [4]: significantly reduced
IC50 (other PDE family members): > 5000 nM
